Data from patent publication US20250326718A1, “4-PHENYL-2-PYRROLIDINONES AND METHODS OF USING THEREOF” (North Carolina State University, priority 2022, published 2025).
Values after ≈ are worked out from the molar mass of the structure shown. Structures can show the parent of a compound that is named as a salt. Where two headings read alike, the source gives them in different places.

Legend:
[1] = system: MRSA (ATCC BAA 44) biofilm; experiment: Inhibition of MRSA biofilm formation (crystal violet); format: cell-based; conditions: Staphylococcus aureus, 24 h, Table 1
Method: (§1) General information—Biological Assays. Methicillin-resistant and methicillin sensitive Staphylococcus aureus (MRSA and MSSA respectively) strains were obtained from the Laboratory of Professor Christian Melander (NCSU) (ATCC BAA 44 and 33591) and Dr. Jessica Gilbertie (ATCC 25923). Bacteria were kept in frozen stocks on glycerol at −80° C. until use. Bacteria was streaked onto tryptic-soy agar for colony isolation. Mueller-Hinton broth (MHB, 211443-BD), tryptic soy broth (TSB, Remel: R455052) and D-glucose (CAS: 492-62-6) were purchased from Fisher Scientific. Tryptic soy agar (TSA, cat. #22091) and Linezolid (cat. #P70014) were purchased from Sigma-Aldrich. Bacteria for biofilm inhibition were cultured overnight in TSB-G (tryptic soy broth with 0.5% glucose supplement) in 96 well plates. All assays were run in duplicate and repeated at least two separate times for MIC assays and at least three separate times for biofilm inhibition. All compounds were dissolved in molecular biology grade DMSO as 10 mM stock solutions. Optical densities were measured using a Thermo Scientific Genesys 20 spectrophotometer. Data for biofilm inhibition were collected using a BioTek ELx808 Microplate Reader. All graphs were generated and analyzed using GraphPad Prism 7.
Determination of the inhibitory effect of test compounds on MRSA biofilm formation. Inhibition assays were performed using a procedure adapted from S. A. Rogers and C. Melander, Angew. Chem. Int. Ed., 2008, 47, 5229-5231, which is hereby incorporated herein by reference. Briefly, the inhibition assays were performed by subculturing an overnight culture of MRSA (ATCC BAA 44) to an OD600 of 0.01 in TSB-G (tryptic soy broth with a 0.5% glucose supplement). Stock solutions of predetermined concentrations of the test compound were then made using the inoculated TSB-G. These stock solutions were aliquoted (100 μL) into the wells of the 96-well microtiter plate. Sample plates were sealed then incubated for 24 h at 37° C. After incubation, the medium was discarded from the wells and the plates were washed 2× with PBS. Prior to staining, plates were left to dry at ambient temperature for 2-3 h. Plates were then stained with 0.1% solution of crystal violet (CV, 125 μL) and then incubated at ambient temperature for 30 min. Plates were washed with PBS again and the remaining stain was solubilized with 99% ethanol (200 μL). A sample of solubilized CV stain (110 μL) from each well was transferred to the corresponding wells of a polystyrene microtiter dish. Biofilm biomass was quantified by measuring the OD540 of each well and inhibition was calculated as a percentage of the control (no compound); a negative control lane wherein no biofilm was formed served as a background and was subtracted out. Percent inhibition was then plotted against concentration in Prism 7. Each of the four experiments were plotted separately and S15 analyzed by a normalized nonlinear regression. The graphs on the following pages were generated from an average of the total data set. Biofilm data represent four separate experiments, with each experiment performed in duplicate (average of 8 data points for each concentration tested, unless otherwise noted).

[2] = system: MRSA (ATCC 33591); experiment: Broth microdilution MIC, MRSA ATCC 33591; format: cell-based; conditions: Staphylococcus aureus; Table 1, Compounds 1-15; preliminary data, modified non-standard conditions (pH 9), solubility-limited
Method: as §1
Broth microdilution method for determination of minimum inhibitory concentrations. As prescribed by the Clinical and Laboratory Standards Institute (CLSI) M07-A8, Vol. 29 (2) MSSA (ATCC 25923) and MRSA (ATCC BAA 44 and 33591) was grown in MHB for 6-8 h; this culture was used to inoculate fresh MHB (5×10^5 CFU/mL). The resulting bacterial suspension was aliquoted (1 mL) into 1.5 mL Eppendorf tubes and compound was added from a 10 mM DMSO stock to achieve the desired initial starting concentration (typically 128 μg/mL). Linezolid (from a 10 mM DMSO stock) was used as a positive control. Inoculated media not treated with compound served as the negative control. The MIC was determined by microbroth dilution following the CLSI guidelines. The MIC was defined as the lowest concentration of antibiotic with no visible growth. The plate was sealed and incubated under stationary conditions at 37° C.
The antimicrobial activity of Compounds 1-15 was assessed initially against MSSA (ATCC 25923) and MRSA (ATCC 33591) strains. It was observed that almost all these compounds precipitated in aqueous solution at concentrations equal or higher than 8-16 μg/mL. In order to obtain preliminary results on the antimicrobial activity for these compounds, the standard conditions of the antimicrobial assays used where modified to favor the water solubility of these compounds.

[3] = system: MSSA (ATCC 25923); experiment: Broth microdilution MIC, MSSA ATCC 25923; format: cell-based; conditions: Staphylococcus aureus, read-out: MIC value against MSSA ATCC 25923
[4] = system: MSSA (ATCC 25923) biofilms; experiment: Minimum Biofilm Eradication Concentration (MBEC), Calgary Biofilm Device; format: cell-based, Staphylococcus aureus; conditions: antibiotic alone
Method: MBEC concentrations were measured using a procedure adapted from H. Ceri, et al., J Clin. Microbiol., 1999, 1771-1776, which is hereby incorporated herein by reference. Briefly, biofilm eradication experiments were performed using MSSA (ATCC 25923) and the Calgary Biofilm Device (CBD) to determine MBEC values for various compounds of interest (Innovotech, product code: 19111). The Calgary device is a 96-well plate with a lid containing 96 pegs that sit in the media contained in the bottom well. Biofilm are established on the individual pegs. The established biofilm (contained on the individual peg) can then be transferred to a new base well for MBEC testing. For the MBEC assay, an overnight culture of MSSA (ATCC 25923) was adjusted to 0.5 McFarland in MHB-G. The CBD was inoculated with 100 μL of the 0.5 McFarland and incubated at 37° C. for 24 hours to establish biofilms. The CBD lid containing the established biofilms on individual pegs was removed, washed 3× with PBS and transferred to another 96-well plate containing serial dilutions of the test compounds (the “challenge plate”) and incubated at 37° C. for 24 hours. […] The plate was then sonicated for sonicated for 30 minutes to disperse biofilms on S16 the pegs into the fresh MHB in the base well. After sonication, the plate was incubated for 24 hours at 37° C.

Row | SMILES | MIC [2] [µg/mL] | inhibition at 5 µM [1] [%] | inhibition at 40 µM [1] [%] | MIC [3] [µg/mL] | MBEC value against MSSA ATCC 25923 [4] [pug/mL] | MIC ([3]; antibiotic alone) [µg/mL]
1 | CCC1C(c2ccc(C(F)(F)F)cc2)=C(O)C(=O)N1c1cccnc1 (stereo not shown) [Compound 6, 5-Ethyl-3-hydroxy-1-(pyridin-3-yl)-4-(4-(trifluoromethyl)phenyl)-1,5-dihydro-2H-pyrrol-2-one] | > 128 | 4 | 31 |  |  | 
2 | CN[C@H](CC(C)C)C(=O)N[C@H]1C(=O)N[C@@H](CC(N)=O)C(=O)N[C@H]2C(=O)N[C@H]3C(=O)N[C@H](C(=O)N[C@H](C(=O)O)c4cc(O)cc(O)c4-c4cc3ccc4O)[C@H](O)c3ccc(c(Cl)c3)Oc3cc2cc(c3O[C@@H]2O[C@H](CO)[C@@H](O)[C@H](O)[C@H]2O[C@H]2C[C@](C)(N)[C@H](O)[C@H](C)O2)Oc2ccc(cc2Cl)[C@H]1O [Vancomycin, vancomycin hydrochloride, reference compound] |  |  |  | 0.5 | 2048 | 
3 | CCC1C(c2ccc(C(F)(F)F)cc2)=C(O)C(=O)N1Cc1ccc(OC)cc1OC (stereo not shown) [Compound 15] | > 128 | 63 | 57 |  |  | 
4 | Cc1onc(-c2ccccc2)c1C(=O)N[C@@H]1C(=O)N2[C@@H]1SC(C)(C)[C@@H]2C(=O)O [Oxacillin, oxacillin sodium monohydrate, reference compound] |  |  |  |  | 2048 | 0.5
5 | CCC1C(c2ccc(C(F)(F)F)cc2)=C(O)C(=O)N1Cc1cccs1 (stereo not shown) [Compound 7, 5-Ethyl-3-hydroxy-1-(thiophen-2-ylmethyl)-4-(4-(trifluoromethyl)phenyl)-1,5-dihydro-2H-pyrrol-2-one] | > 128 | 54 | 79 |  |  | 
6 | O=C1C(O)=C(c2ccc(C(F)(F)F)cc2)CN1c1ccccc1 [Compound 9, 3-Hydroxy-1-phenyl-4-(4-(trifluoromethyl)phenyl)-1,5-dihydro-2H-pyrrol-2-one] | > 128 | 26 | 8 |  |  | 
7 | CCC1C(c2ccc(C(F)(F)F)cc2)=C(O)C(=O)N1c1ccc(OC)c(OC)c1 (stereo not shown) [Compound 5, 1-(3,4-Dimethoxyphenyl)-5-ethyl-3-hydroxy-4-(4-(trifluoromethyl)phenyl)-1,5-dihydro-2H-pyrrol-2-one] | > 128 | 17 | 70 |  |  | 
8 | CC(C)C1C(c2ccc(C(F)(F)F)cc2)=C(O)C(=O)N1c1ccccc1 (stereo not shown) [Compound 10, 3-Hydroxy-5-isopropyl-1-phenyl-4-(4-(trifluoromethyl)phenyl)-1,5-dihydro-2H-pyrrol-2-one] | > 128 | -5 | 3 |  |  | 

Further lines, with some results ahead:

Row | MIC [2] [µg/mL] | SMILES | inhibition at 5 µM [1] [%] | inhibition at 40 µM [1] [%] | MIC [3] [µg/mL] | MBEC value against MSSA ATCC 25923 [4] [pug/mL] | MIC ([3]; antibiotic alone) [µg/mL]
9 | > 128 | CCC1C(c2ccc(C(F)(F)F)cc2)=C(O)C(=O)N1CCc1ccccc1 (stereo not shown) [Compound 8, 5-Ethyl-3-hydroxy-1-phenethyl-4-(4-(trifluoromethyl)phenyl)-1,5-dihydro-2H-pyrrol-2-one] | 23 | 46 |  |  | 
10 | 16 (≈ 46.9 µM) | CCCCCN1C(=O)C(O)=C(c2ccc(C(F)(F)F)cc2)C1CC (stereo not shown) [Compound 11, 5-Ethyl-3-hydroxy-1-pentyl-4-(4-(trifluoromethyl)phenyl)-1,5-dihydro-2H-pyrrol-2-one] | 58 | 63 |  |  | 
11 | > 128 | CCC1C(c2ccc(C(F)(F)F)cc2)=C(O)C(=O)N1CCC(C)C (stereo not shown) [Compound 14, 5-Ethyl-3-hydroxy-1-isopentyl-4-(4-(trifluoromethyl)phenyl)-1,5-dihydro-2H-pyrrol-2-one] | 47 | 43 |  |  | 
12 | 32 (≈ 75.1 µM) | CCC1C(c2ccc(C(F)(F)F)cc2)=C(O)C(=O)N1c1ccc(Br)cc1 (stereo not shown) [Compound 3, 1-(4-Bromophenyl)-5-ethyl-3-hydroxy-4-(4-(trifluoromethyl)phenyl)-1,5-dihydro-2H-pyrrol-2-one] | 34 | 72 |  |  | 
13 | 32 (≈ 96 µM) | CC1C(c2ccc(C(F)(F)F)cc2)=C(O)C(=O)N1c1ccccc1 (stereo not shown) [Compound 2, 3-Hydroxy-5-methyl-1-phenyl-4-(4-(trifluoromethyl)phenyl)-1,5-dihydro-2H-pyrrol-2-one] | -26 | 72 |  |  | 
14 | 16 (≈ 46.1 µM) | CCC1C(c2ccc(C(F)(F)F)cc2)=C(O)C(=O)N1c1ccccc1 (stereo not shown) [Compound 1, 5-Ethyl-3-hydroxy-1-phenyl-4-(4-(trifluoromethyl)phenyl)-1,5-dihydro-2H-pyrrol-2-one] | 5 | 85 |  |  | 
15 | 16 (≈ 43.8 µM) | CCC1C(c2ccc(C(F)(F)F)cc2)=C(O)C(=O)N1c1ccc(F)cc1 (stereo not shown) [Compound 4, 5-Ethyl-1-(4-fluorophenyl)-3-hydroxy-4-(4-(trifluoromethyl)phenyl)-1,5-dihydro-2H-pyrrol-2-one] | 22 | 81 |  |  | 
